These results are taken from US20040121946A9, “Inducing cellular immune responses to her2/neu using peptide and nucleic acid compositions” (priority 2002, published 2004).

In general, pIC50 refers to the negative decadic logarithm of the IC50, by convention in mol/L. Read a low pIC50 as a high IC50.

The target of experiment [1] is HLA-A*0301 (Homo sapiens, UniProt P04439). The format is binding. The following applies: Table XXIII, HLA-A3 supermotif-bearing peptides.
Experiment [2] has as its target HLA-A*1101 (Homo sapiens, UniProt P04439, A114D/D185E/E176A/F33Y/L180Q/S129P/T187R). The format is binding. To be noted: Table XXIII, HLA-A3 supermotif-bearing peptides.
Experiment [3] has as its target HLA-A*3101 (Homo sapiens, UniProt P04439, A270S/D185E/E176V/E277Q/F33T/G231S/G80R/H175R/I121M/I218V/I322F/K168Q/L300P/L318F/M331R/P217A/Q94H/R138Q/T323A/T345S/T97I/V358M). The experiment is classed as binding. The following applies: Table XXIII, HLA-A3 supermotif-bearing peptides.
The target of experiment [4] is HLA-A*3301 (Homo sapiens, UniProt P04439, A270S/D185E/E176V/E277Q/E87N/F33T/G231S/H175R/I121M/I218V/I322F/K168Q/K210R/L300P/L318F/M331R/P217A/Q86R/Q94H/R138Q/T323A/T345S/T97I/V358M/Y195H). The experiment is classed as binding. The following applies: Table XXIII, HLA-A3 supermotif-bearing peptides.
Experiment [5] deals with HLA-A*6801 (Homo sapiens, UniProt P04439, A269V/D185E/E176V/E277Q/E87N/F33Y/G231S/I121M/I166T/I218V/L180W/L300P/L318F/N151K/P208A/P217A/Q86R/R169H/T345S). The experiment is classed as binding. The following applies: Table XXIII, HLA-A3 supermotif-bearing peptides.
Experiment [6] deals with A3-supertype alleles (A*0301, A*1101, A*3101, A*3301, A*6801). The experiment can be described thus: A3-supertype cross-reactive binding. Details: species or system human. The following applies: of five A3-supertype alleles tested.
For experiment [7], the system named is peptide-pulsed target cells and transfected cells endogenously expressing the antigen. The experiment can be described thus: Recall CTL responses of PBMCs from ovarian cancer patients. The experiment is classed as cell-based, human. The following applies: two patients with ovarian cancer; peptide-pulsed targets and transfected cells.
Source text: Immunogenicity was additionally confirmed using PBMCs isolated from cancer patients. Briefly, PBMCs were isolated from two patients with ovarian cancer, re-stimulated with peptide-pulsed monocytes and assayed for the ability to recognize peptide-pulsed target cells as well as transfected cells endogenously expressing the antigen.

pIC50: −log10 of the molar value. Where a SMILES comes first, the peptide text is derived from it. Where no end group is shown, it is not given here. [ ]: non-standard residue; d: D form. Abu = CC[C@H](N)C(=O)O

HLA-A*1101, sequence (P04439 25-365 limits assumed, stated change not applied): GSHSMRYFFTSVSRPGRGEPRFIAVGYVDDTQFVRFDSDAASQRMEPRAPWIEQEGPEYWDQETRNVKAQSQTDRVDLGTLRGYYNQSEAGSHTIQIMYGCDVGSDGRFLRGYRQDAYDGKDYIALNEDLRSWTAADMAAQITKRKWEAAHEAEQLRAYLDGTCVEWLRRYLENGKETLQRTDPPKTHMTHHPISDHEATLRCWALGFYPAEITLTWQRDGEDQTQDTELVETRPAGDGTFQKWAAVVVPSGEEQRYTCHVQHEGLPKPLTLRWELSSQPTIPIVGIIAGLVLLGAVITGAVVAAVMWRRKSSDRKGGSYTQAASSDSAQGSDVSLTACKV

In the case of `CC[C@H](NC(=O)CNC(=O)CNC(=O)[C@H](C)NC(=O)[C@H](CC)NC(=O)[C@@H](NC(=O)[C@@H](N)[C@@H](C)O)C(C)C)C(=O)N[C@@H](C)C(=O)N[C@@H](CCCCN)C(=O)O` [Her2/neu.218.B3B7K9] (H-TV[Abu]AGG[Abu]AK-OH), the pIC50 in experiment [1] is 7.62; in experiment [2], 7.54; in experiment [3], < 5.00; in experiment [4] it was < 5.00; in experiment [5], 8.14. The “No. of A3 Alleles Crossbound” value in experiment [6] stood at 3.
Take `CC[C@H](NC(=O)CNC(=O)CNC(=O)[C@H](C)NC(=O)[C@H](CC)NC(=O)[C@@H](NC(=O)[C@@H](N)[C@@H](C)O)C(C)C)C(=O)N[C@@H](C)C(=O)N[C@@H](CCCNC(=N)N)C(=O)O` [Her2/neu.218.B3B7] (H-TV[Abu]AGG[Abu]AR-OH): the pIC50 in experiment [1] is 6.50; in experiment [2], 6.95; in experiment [3], 6.61; in experiment [4], 6.62; in experiment [5], 8.10. The “No. of A3 Alleles Crossbound” value in experiment [6] was found to be 5.
`CC(C)[C@H](NC(=O)[C@@H](N)[C@@H](C)O)C(=O)N[C@@H](CS)C(=O)N[C@@H](C)C(=O)NCC(=O)NCC(=O)N[C@@H](CS)C(=O)N[C@@H](C)C(=O)N[C@@H](CCCNC(=N)N)C(=O)O` [Her2/neu.218]: the negative-log IC50 (pIC50) is < 5.00 in experiment [1]; 6.58 in experiment [2]; 6.89 in experiment [3]; 6.49 in experiment [4]; 7.08 in experiment [5]. In experiment [6], the “No. of A3 Alleles Crossbound” value is 4.
As to `CC[C@H](C)[C@H](N)C(=O)N[C@H](C(=O)N[C@@H](Cc1c[nH]c2ccccc12)C(=O)N[C@@H](CC(C)C)C(=O)NCC(=O)N[C@@H](CC(C)C)C(=O)N[C@@H](CCCNC(=N)N)C(=O)N[C@@H](CO)C(=O)N[C@@H](CC(C)C)C(=O)N[C@@H](CCCCN)C(=O)O)C(C)C` [Her2/neu.450.V2K10], the pIC50 in experiment [1] was 8.41; in experiment [2], 6.89; in experiment [3], 6.56; in experiment [4], 5.68; in experiment [5] it was 7.92. For the same compound, the “No. of A3 Alleles Crossbound” value in experiment [6] worked out at 4.
Turning to `CC[C@H](C)[C@H](N)C(=O)N[C@H](C(=O)N[C@@H](Cc1c[nH]c2ccccc12)C(=O)N[C@@H](CC(C)C)C(=O)NCC(=O)N[C@@H](CC(C)C)C(=O)N[C@@H](CCCNC(=N)N)C(=O)N[C@@H](CO)C(=O)N[C@@H](CC(C)C)C(=O)N[C@@H](CCCNC(=N)N)C(=O)O)C(C)C` [Her2/neu.450.V2], the pIC50 in experiment [1] was 6.63; in experiment [3] it was 7.96; in experiment [4], 6.71; in experiment [5], 8.14. Further, in experiment [6], the “No. of A3 Alleles Crossbound” value amounted to 4.
For the compound `CC[C@H](C)[C@H](N)C(=O)N[C@@H](CO)C(=O)N[C@@H](Cc1c[nH]c2ccccc12)C(=O)N[C@@H](CC(C)C)C(=O)NCC(=O)N[C@@H](CC(C)C)C(=O)N[C@@H](CCCNC(=N)N)C(=O)N[C@@H](CO)C(=O)N[C@@H](CC(C)C)C(=O)N[C@@H](CCCNC(=N)N)C(=O)O` [Her2/neu.450], the pIC50 in experiment [1] is 6.57; in experiment [2], 5.65; in experiment [3], 8.16; in experiment [4], 6.65; in experiment [5], 7.14. For the same compound, the “No. of A3 Alleles Crossbound” value in experiment [6] is on record as 4.
Take `CC(C)C[C@H](NC(=O)[C@H](CCC(N)=O)NC(=O)[C@H](CC(=O)O)NC(=O)[C@H](Cc1c[nH]c2ccccc12)NC(=O)[C@@H]1CCCN1C(=O)[C@@H](NC(=O)[C@@H](NC(=O)[C@@H](N)Cc1c[nH]cn1)C(C)C)C(C)C)C(=O)N[C@@H](Cc1ccccc1)C(=O)N[C@@H](CCCCN)C(=O)O` [Her2/neu.478.V2K10]: the pIC50 is 6.74 in experiment [1]; 6.43 in experiment [2]; < 5.00 in experiment [3]; < 5.00 in experiment [4]; 8.05 in experiment [5]. The “No. of A3 Alleles Crossbound” value in experiment [6] came to 3.
Regarding `CC(C)C[C@H](NC(=O)[C@H](CCC(N)=O)NC(=O)[C@H](CC(=O)O)NC(=O)[C@H](Cc1c[nH]c2ccccc12)NC(=O)[C@@H]1CCCN1C(=O)[C@@H](NC(=O)[C@@H](NC(=O)[C@@H](N)Cc1c[nH]cn1)[C@@H](C)O)C(C)C)C(=O)N[C@@H](Cc1ccccc1)C(=O)N[C@@H](CCCNC(=N)N)C(=O)O` [Her2/neu.478], the pIC50 in experiment [1] was 5.50; in experiment [2] it was 7.08; in experiment [3], 7.72; in experiment [4] it was 7.06; in experiment [5] it was 8.40. Moreover, the “No. of A3 Alleles Crossbound” value in experiment [6] is listed as 4.
In the case of `CC[C@H](NC(=O)[C@H](CC(N)=O)NC(=O)[C@@H](NC(=O)[C@@H](N)CC)C(C)C)C(=O)N[C@@H](CO)C(=O)N[C@@H](CCC(N)=O)C(=O)N[C@@H](Cc1ccccc1)C(=O)N[C@@H](CC(C)C)C(=O)N[C@@H](CCCCN)C(=O)O` [Her2/neu.528.B1B4K9] (H-[Abu]VN[Abu]SQFLK-OH), the pIC50 is 7.47 in experiment [1]; 7.66 in experiment [2]; 7.22 in experiment [3]; 5.37 in experiment [4]; 7.82 in experiment [5]. Also, the “No. of A3 Alleles Crossbound” value in experiment [6] was 4.
As for `CC[C@H](NC(=O)[C@H](CC(N)=O)NC(=O)[C@@H](NC(=O)[C@@H](N)CC)C(C)C)C(=O)N[C@@H](CO)C(=O)N[C@@H](CCC(N)=O)C(=O)N[C@@H](Cc1ccccc1)C(=O)N[C@@H](CC(C)C)C(=O)N[C@@H](CCCNC(=N)N)C(=O)O` [Her2/neu.528.B1B4] (H-[Abu]VN[Abu]SQFLR-OH), the negative logarithm of the IC50 (pIC50) in experiment [1] is 6.75; in experiment [2], 7.10; in experiment [3], 7.42; in experiment [4], 7.24; in experiment [5] it was 8.00. Also, the “No. of A3 Alleles Crossbound” value in experiment [6] is listed as 5.
In the case of `CC(C)C[C@H](NC(=O)[C@H](Cc1ccccc1)NC(=O)[C@H](CCC(N)=O)NC(=O)[C@H](CO)NC(=O)[C@H](CS)NC(=O)[C@H](CC(N)=O)NC(=O)[C@@H](NC(=O)[C@@H](N)CS)C(C)C)C(=O)N[C@@H](CCCNC(=N)N)C(=O)O` [Her2/neu.528], the pIC50 is 5.13 in experiment [1]; 6.71 in experiment [2]; 7.47 in experiment [3]; 7.30 in experiment [4]; 7.74 in experiment [5]. Moreover, the “No. of A3 Alleles Crossbound” value in experiment [6] worked out at 4.
Take `CC[C@H](C)[C@H](NC(=O)CNC(=O)[C@H](Cc1ccccc1)NC(=O)[C@@H](NC(=O)[C@@H](NC(=O)CNC(=O)[C@H](CC(C)C)NC(=O)[C@@H](NC(=O)[C@@H](N)C(C)C)C(C)C)C(C)C)C(C)C)C(=O)O` [Her2/neu.665]: the “recognition by CTLs from cancer patient PBMCs” value in experiment [7] is reported as “recognized by CTLs from only one of the two patients”.
Still for that read-out and setting: the entry for `CC(C)C[C@H](NC(=O)[C@H](CC(C)C)NC(=O)[C@@H](N)CCCNC(=N)N)C(=O)N[C@@H](CCC(N)=O)C(=O)N[C@@H](CCC(=O)O)C(=O)N[C@H](C(=O)N[C@@H](CCC(=O)O)C(=O)N[C@@H](CC(C)C)C(=O)N[C@H](C(=O)O)C(C)C)[C@@H](C)O` [Her2/neu.689] is “is also an epitope”.
The same measure, in the same setting: the value for `CSCC[C@H](NC(=O)[C@@H](N)C(C)C)C(=O)N[C@@H](C)C(=O)NCC(=O)N[C@H](C(=O)NCC(=O)N[C@@H](CO)C(=O)N1CCC[C@H]1C(=O)N[C@@H](Cc1ccc(O)cc1)C(=O)N[C@H](C(=O)O)C(C)C)C(C)C` [Her2/neu.773] was “recognized by CTLs from only one of the two patients”; that for `CC(C)C[C@H](NC(=O)[C@H](CCC(N)=O)NC(=O)[C@@H](NC(=O)[C@@H](NC(=O)[C@H](CO)NC(=O)[C@@H](NC(=O)[C@H](CC(C)C)NC(=O)[C@@H](N)CS)[C@@H](C)O)[C@@H](C)O)C(C)C)C(=O)N[C@H](C(=O)O)C(C)C` [Her2/neu.789] was “recognized peptide-pulsed targets only”.
On to `CC(C)C[C@H](NC(=O)[C@@H]1CCCN1C(=O)[C@@H](NC(=O)[C@H](C)N)C(C)C)C(=O)N[C@@H](CC(=O)O)C(=O)N[C@@H](CO)C(=O)N[C@H](C(=O)N[C@@H](Cc1ccccc1)C(=O)N[C@@H](Cc1ccc(O)cc1)C(=O)N[C@@H](CCCNC(=N)N)C(=O)O)[C@@H](C)O` [Her2/neu.997.V2], for which the negative logarithm of the IC50 (pIC50) in experiment [2] was 7.06; in experiment [3], 4.52; in experiment [4], 5.58; in experiment [5], 7.14. Also, in experiment [6], the “No. of A3 Alleles Crossbound” value is on record as 2.
Turning to AVPLDSTFYK [Her2/neU.997.V2K10], the pIC50 in experiment [1] was 6.26; in experiment [2], 7.48; in experiment [3] it was 5.82; in experiment [4], 4.65; in experiment [5], 6.64. Besides, the “No. of A3 Alleles Crossbound” value in experiment [6] was 2.
As for HVVPWDQLFR [Her2/neu.478.V2], the pIC50 was 5.13 in experiment [1], 5.88 in experiment [2], 6.71 in experiment [4] and 8.44 in experiment [5]. Further, the “No. of A3 Alleles Crossbound” value in experiment [6] turned out to be 3.
On to LVKSPNHVR [Her2/neu.852.R9], for which the negative-log IC50 (pIC50) was 5.10 in experiment [1]; < 5.00 in experiment [2]; 6.70 in experiment [3]; 6.97 in experiment [4]; 7.30 in experiment [5]. Further, in experiment [6], the “No. of A3 Alleles Crossbound” value is given as 3.
